Test results taken from patent US20260232671A1, “PHARMACEUTICAL COMPOSITION FOR LOCAL ADMINISTRATION, PREPARATION METHOD THEREFOR, AND USE THEREOF” (priority 2023, published 2026).

Columns and labels:
[1] = Preparation of solutions: clear or turbid phenomenon in solvent mixtures; type: physicochemical
[2] = tested on: freshly excised skin samples from Bama miniature pigs; assay: IVPT, Franz diffusion cells, Example 12; type: in vitro ADME; conditions: penetration enhancer 7% in 1% solution, compared with the solution in the blank group
Method: The penetrability of the API in the topical formulations was studied using freshly excised skin samples from Bama miniature pigs mounted in Franz diffusion cells. The fresh skin of Bama miniature pigs was depilated and then stored at −20° C. for later use. On the morning of the experiment, the skin was taken out and thawed, and after the transepidermal water loss value of the skin was detected to be less than 30, the skin was ready for use. The skin was cut to a size suitable for placing the pig skin samples between the donor and receiver compartments, and the pig skin samples were placed between the donor and receiver compartments of the Franz diffusion cell. About 60 mg of the sample was evenly applied to the pig skin. The opening of the Franz cell was 3.14 cm^2. 8.0 mL of a receiver solution was used. At 0.5 h, 2 h, […], and 24 h, 1.0 mL of the sample was removed and replaced with a new receiver solution. At 24 h, the skin was collected. The pig skin was treated, the epidermal and dermis layers were separated and extracted with a skin extract solution, and the residual drug amount, drug concentrations in the epidermal and dermis layers, and drug penetration concentration were detected by HPLC.

state of the solutions ([1]; concentration of the active ingredient 1%, dimethyl sulfoxide replaced with ethanol, propylene glycol, polyethylene glycol 400, or dimethylformamide)	Phenomenon ([1]; mass %: active ingredient 1, diethylene glycol monoethyl ether 40, dimethylformamide 45, propylene glycol 14)	Phenomenon ([1]; mass %: active ingredient 1, diethylene glycol monoethyl ether 40, ethanol 50, propylene glycol 9)	Phenomenon ([1]; mass %: active ingredient 1, diethylene glycol monoethyl ether 40, polyethylene glycol 400 59)	Phenomenon ([1]; mass %: active ingredient 1, diethylene glycol monoethyl ether 40, propylene glycol 59)	Phenomenon ([1]; mass %: active ingredient 1, dimethyl sulfoxide 10, diethylene glycol monoethyl ether 40, polyethylene glycol 400 49)	Phenomenon ([1]; mass %: active ingredient 1, dimethyl sulfoxide 35, diethylene glycol monoethyl ether 10, glycerol 20, propylene glycol 34)	Phenomenon ([1]; mass %: active ingredient 1, dimethyl sulfoxide 35, diethylene glycol monoethyl ether 30, glycerol 20, propylene glycol 14)	Phenomenon ([1]; mass %: active ingredient 1, dimethyl sulfoxide 40, diethylene glycol monoethyl ether 15, glycerol 20, propylene glycol 14, water 10)	Phenomenon ([1]; mass %: active ingredient 1, dimethyl sulfoxide 40, diethylene glycol monoethyl ether 15, propylene glycol 14, water 30)	Phenomenon ([1]; mass %: active ingredient 1, dimethyl sulfoxide 40, diethylene glycol monoethyl ether 35, propylene glycol 14, water 10)	Phenomenon ([1]; mass %: active ingredient 1, dimethyl sulfoxide 40, diethylene glycol monoethyl ether 40, glycerol 5, propylene glycol 14)	Phenomenon ([1]; mass %: active ingredient 1, dimethylformamide 45, propylene glycol 54)	Phenomenon ([1]; mass %: active ingredient 1, ethanol 45, propylene glycol 54)	Phenomenon ([1]; mass %: active ingredient 1.5, dimethyl sulfoxide 45, diethylene glycol monoethyl ether 40, propylene glycol 13.5)	Phenomenon ([1]; mass %: active ingredient 2, dimethyl sulfoxide 45, diethylene glycol monoethyl ether 40, propylene glycol 12)	Molecule	preparation of a clear solution ([1]; concentration of dimethyl sulfoxide maintained at a high level, addition of a trace amount of water)	skin penetration-enhancing effect [2]
suspensions	Turbid	Turbid	Turbid	Turbid	Turbid	Clear	Clear	Turbid	Turbid	Turbid	Clear	Turbid	Turbid	Clear	Clear	COc1nsc(NC(=O)N2C[C@H]3CC(N(C)c4ncnc5[nH]ccc45)C[C@H]3C2)n1 (stereo partly drawn) [Active ingredient in free base form, (3aR,5s,6aS)—N-(3-methoxy-1,2,4-thiadiazol-5-yl)-5-(methyl(7H-pyrrolo[2,3-d]pyrimidin-4-yl)amino)hexahydrocyclopenta[c]pyrrole-2(1H)-carboxamide]	failed to prepare a clear solution above 1% concentration	–
–	–	–	–	–	–	–	–	–	–	–	–	–	–	–	–	CC(O)C(=O)O (stereo not shown) [lactic acid]	–	relatively good skin penetration-enhancing effect
–	–	–	–	–	–	–	–	–	–	–	–	–	–	–	–	propylene glycol monocaprylate	–	certain skin penetration-enhancing effect
